Reference: paper PMC8179049 (Chemical Science, 2020)
Where “and” joins values, the source holds several entries; their conditions need not be identical. Identical values can stand only once. Like-named read-outs stand apart in the source and are kept apart here.

What was measured:
human AspH = target: T1, human AspH (Homo sapiens, UniProt Q12797); assay: SPE-MS AspH turnover assay in the absence of 2OG (2OG derivative as cosubstrate); conditions: 330 μM 2OG or 2OG derivative, 0.1 μM AspH, 2 μM hFX-CP101-119, 50 μM FAS, t = 15 min;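 further: percent conversion = hydroxylated cyclic peptide peak area relative to summed substrate plus product areas, taken from +2 charge state ion chromatograms by solid phase extraction MS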
T1 sequence (Q12797 315-758): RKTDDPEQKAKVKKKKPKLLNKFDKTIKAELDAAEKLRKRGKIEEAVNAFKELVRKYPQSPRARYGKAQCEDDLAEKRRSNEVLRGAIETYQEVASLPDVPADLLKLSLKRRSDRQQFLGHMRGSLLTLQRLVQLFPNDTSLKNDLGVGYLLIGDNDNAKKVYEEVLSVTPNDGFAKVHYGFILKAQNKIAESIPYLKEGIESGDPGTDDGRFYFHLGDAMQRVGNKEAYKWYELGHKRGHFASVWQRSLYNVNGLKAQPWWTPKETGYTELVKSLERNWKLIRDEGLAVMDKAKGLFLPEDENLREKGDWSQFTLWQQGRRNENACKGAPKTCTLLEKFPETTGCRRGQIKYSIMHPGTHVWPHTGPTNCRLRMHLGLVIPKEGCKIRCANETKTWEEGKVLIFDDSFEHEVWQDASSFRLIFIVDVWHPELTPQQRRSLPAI
Method: AspH assays were performed as described in the ESI, ^† data are shown as the mean of three independent runs (n = 3; mean ± standard deviation, SD).
AspH assays were performed as described in Section 9 of the Supporting Information using 0.1 μM AspH, 2 μM
a positive control in the SPE-MS AspH turnover assays (Entry 1).
dependent conversion of the AspH substrate hFX-CP101-119 (Supporting Figure S1d). %-Substrate conversion is
AspH assays were performed as
described in Section 9 of the Supporting Information using 0.1 μM AspH, 2 μM hFX-CP101-119, 50 μM FAS, 330
AspH inhibition assays were incubated for 6 rather than 7 minutes before the enzyme reaction was
stopped by the addition of 10%v/v aqueous formic acid.
MS-analyses were performed using a RapidFire RF 365 high-throughput sampling robot (Agilent) attached to an
iFunnel Agilent 6550 accurate mass quadrupole time-of-flight (Q-TOF) mass spectrometer operated in the positive
ionization mode. Assay samples were aspirated under vacuum for 0.4 s and loaded onto a C4 solid phase extraction (SPE) cartridge. After loading, the C4 SPE cartridge was washed with 0.1%v/v aqueous formic acid to remove
non-volatile buffer salts (5 s, 1.5 mL/min). The peptide was eluted from the SPE cartridge with 0.1%v/v aqueous
formic acid in 85/15v/v acetonitrile/water into the mass spectrometer (5 s, 1.25 mL/min) and the SPE cartridge re-
equilibrated with 0.1%v/v aqueous formic acid (1 s, 1.25 mL/min). The mass spectrometer parameters were:
capillary voltage (4000 V), nozzle voltage (1000 V), fragmentor voltage (365 V), gas temperature (280°C), gas
flow (13 L/min), sheath gas temperature (350°C), sheath gas flow (12 L/min). The m/z +2 charge states of the
cyclic peptide (substrate) and the hydroxylated cyclic peptide (product) were used to extract ion chromatogram
data, peak areas were integrated using RapidFire Integrator software (Agilent). Data were exported into Microsoft
Excel and used to calculate the % conversion of the hydroxylation reaction using the equation: % conversion =
100 x (integral product cyclic peptide) / (integral substrate cyclic peptide + integral product cyclic peptide).
Normalized dose-response curves (2,4-PDCA and DMSO controls) were obtained from the raw data by non-linear
regression (GraphPad Prism 5) and used to determine IC50-values. The standard deviation (SD) of three
independent IC50 determinations (n = 3) was calculated using GraphPad Prism 5. Z’-factors were calculated
according to the cited literature using Microsoft Excel (Supporting Figure S3).14

[1] = target: T2, human AspH (His6-AspH315-758) (Homo sapiens, UniProt Q12797); assay: SPE-MS AspH inhibition assay; type: biochemical; conditions: mean ± SD, n = 3
T2 construct: N-Terminally His6-tagged human AspH315-758 (His6-AspH315-758) was produced in Escherichia coli BL21 (DE3); made in house; host or cells: Escherichia coli BL21 (DE3), pET-28a(+) vector
T2 sequence (Q12797 315-758): T1 sequence (Q12797 315-758)
Method: 6. Recombinant AspH production and purification
N-Terminally His6-tagged human AspH315-758 (His6-AspH315-758) was produced in Escherichia coli BL21 (DE3) cells using a pET-28a(+) vector and purified by Ni(II)-affinity chromatography (HisTrap HP column, GE Healthcare; 1 mL/min flow rate) and size-exclusion chromatography (HiLoad 26/60 Superdex 75 pg 300 mL column; 1 mL/min) using an ÄKTA pure machine (GE Healthcare) as previously reported.1,4 AspH was >95% pure by SDS-PAGE and MS analysis and had the anticipated mass (calculated for His6-AspH315-758: 54519 Da, found: 54519 Da).1 Purified AspH was stored in 50 mM HEPES buffer (pH 7.5, 150 mM NaCl) at a concentration of 125 μM at -78 °C; fresh aliquots were used for all AspH assays.
7. AspH substrate synthesis
AspH substrates were designed based on the sequence of EGFD1 of human coagulation factor X (hFX amino acids 86-124), which is a reported cellular AspH substrate.2 All substrates were prepared with a C-terminal amide.
The hFX-EGFD186-124-4Ser peptide (hFX amino acids 86-124; Supporting Figure S1c),1 used for crystallography experiments, was synthesized by solid phase peptide synthesis (SPPS) and purified by GL Biochem (Shanghai) Ltd (Shanghai, China). The thioether linked cyclic peptide hFX-CP101-119 (hFX amino acids 101-119; Supporting
Figure S1d), which was used as substrate in AspH SPE-MS assays,4 was synthesized by an intramolecular thioetherification cyclization reaction from the corresponding linear peptide (D-Ala replacing Cys101hFX and Ser replacing Cys112hFX) which was obtained by microwave-assisted solid phase peptide synthesis using the Fmoc-protection strategy as described.4
8. AspH inhibition assays […]
water; ammonium iron(II) sulfate hexahydrate, FAS, (NH 4)2Fe(SO4)2·6H2O: 400 mM in 20 mM HCl diluted to 1 mM in Milli-Q® Ultrapure water) were freshly prepared each day from commercially sourced solids (Sigma […]
(Greiner) in an approximately three-fold and 11-point dilution series (100 μM top concentration) using an ECHO 550 acoustic dispenser (Labcyte). DMSO and 2,4 -PDCA were used as negative and positive controls , respectively .
The final DMSO concentration was kept constant at 0.5%v/v throughout all experiments (using the DMSO backfill option of the acoustic dispenser). Each reaction was performed in technical duplicates in adjacent wells of the assay plates; additionally, assays were performed in three independent technical duplicates on different days using different DMSO inhibitor solutions. […]
dispensed across the inhibitor-containing 384-well assay plates with a multidrop dispenser (ThermoFischer Scientific) at 20°C under an ambient atmosphere. The plates were subsequently centrifuged (1000 rpm, 30 s) and incubated for 15 minutes at 20°C. The Substrate Mixture (25 μL/well), containing 2.0 μM hFX-CP101-119, 200 μM […]
Note: The multidrop dispenser ensured proper mixing of the Enzyme and the Substrate Mixtures which was essential for assay reproducibility. The plates were centrifuged (1000 rpm, 30 s) and af ter incubating for 7 minutes, […]
centrifuged (1000 rpm, 60 s) and analysed by MS.
The mass spectrometer parameters were:
Data were exported into Microsoft
The standard deviation (SD) of three
Z’-factors were calculated
9. Determination of kinetic parameters […]
in 50 mM HEPES buffer (pH 7.5).

[2] = 50 nM His6-AspH315–758, 1.0 μM hFX-CP101–119, 3 μM 2OG, read-out: IC50 (inhibition of AspH)
[3] = 50 nM His6-AspH315–758, 1.0 μM hFX-CP101–119, 3 μM 2OG
[4] = 50 nM His6-AspH315-758, 1.0 μM hFX-CP101-119, read-out: IC50 (ESI Fig. S4)
[5] = IC50 at 200 μM 2OG (ESI Table S1), assay concentration of 200 μM 2OG
[6] = IC50 at 400 μM 2OG (ESI Table S1), assay concentration of 400 μM 2OG
[7] = IC50 at 600 μM 2OG (ESI Table S1), assay concentration of 600 μM (0.6 mM) 2OG

Compound | AspH-catalyzed substrate conversion (hydroxylation of hFX-CP101-119) (human AspH) | IC50 [1, 2] | IC50 (inhibition of AspH) [1, 3] | other results
CC(C)(C)CCC(CC(=O)C(=O)O)C(=O)O (centres unmarked) [compound 30] | < 1% | 0.7 ± 0.11 µM |  | 
O=C(O)C(=O)[C@@H]1[C@@H](C(=O)O)[C@@H]2C=C[C@H]1C2 (racemic) [compound 36] | < 1% | ~19.3 µM and 19.3 µM |  | 
CCCC(CC(=O)C(=O)O)C(=O)O (centres unmarked) [compound 28] | < 1% | 0.47 ± 0.08 µM |  | 
O=C(O)C(=O)c1ccc(C(=O)O)cc1F [compound 42] | ~45% |  | Inactive | melting point: > 310 °C (dec.)
O=C(O)C(=O)C12CCC(C(=O)O)(CC1)CC2 [compound 47] | ~8% |  | did not inhibit | IC50 (inhibition of AspH) ([1]; 50 nM His6-AspH315–758, 1.0 μM hFX-CP101–119, 3 μM 2OG, listed as C00030): Inactive; melting point: > 300 °C (dec.)
O=C(O)CC(CCCc1ccccc1)C(=O)C(=O)O (centres unmarked) [compound 20] | < 1% | ~6.8 µM and 6.8 µM |  | melting point: > 220 °C (dec.)
CCC(CC(=O)C(=O)O)C(=O)O (centres unmarked) [compound 27] | < 1% | 0.61 ± 0.09 µM |  | 
O=C(O)CC(Cc1ccc(F)cc1)C(=O)C(=O)O (centres unmarked) [compound 22] | < 1% | 2.6 ± 0.8 µM |  | melting point: > 250 °C (dec.)
CCCC(CC(=O)O)C(=O)C(=O)O (centres unmarked) [compound 18] | < 1% | ~5.7 µM and 5.7 µM |  | 
CC(CC(=O)C(=O)O)C(=O)O (centres unmarked) [compound 26, 4-methyl-2OG] | ~10% |  | did not inhibit | IC50 (inhibition of AspH) ([1]; 50 nM His6-AspH315–758, 1.0 μM hFX-CP101–119, 3 μM 2OG, listed as C00031): Inactive
Cc1cc(C(=O)O)ccc1C(=O)C(=O)O [compound 46] | ~5% |  | Inactive | melting point: > 320 °C (dec.)
O=C(O)C(=O)c1cscc1C(=O)O [compound 37] | < 1% |  | did not inhibit | IC50 (inhibition of AspH) ([1]; 50 nM His6-AspH315–758, 1.0 μM hFX-CP101–119, 3 μM 2OG, listed as C00032): Inactive
O=C(O)CC(Cc1ccc(OC(F)(F)F)cc1)C(=O)C(=O)O (centres unmarked) [compound 23] | < 1% | 6.3 ± 2.6 µM |  | melting point: > 260 °C (dec.)
O=C(O)C(=O)c1ccc(C(=O)O)c(Br)c1 [compound 45] | ~8% |  | Inactive | 
O=C(O)C(=O)CC(CCCc1ccccc1)C(=O)O (centres unmarked) [compound 31] | < 1% | 0.25 ± 0.05 µM |  | melting point: > 220 °C (dec.)
CC(C)(NC(=O)C(=O)O)C(=O)O [compound 49, N-oxalyl-α-methylalanine] |  | ~2.9 µM |  | IC50 [1, 4]: 2.9 ± 1.3 µM
CC(C)(C)CCC(CC(=O)O)C(=O)C(=O)O (centres unmarked) [compound 19] | < 1% | ~48.2 µM and 48.2 µM |  | 
O=C(O)C(=O)c1ccccc1C(=O)O [compound 39] | < 1% |  | did not inhibit | IC50 (inhibition of AspH) ([1]; 50 nM His6-AspH315–758, 1.0 μM hFX-CP101–119, 3 μM 2OG, listed as C00006): Inactive
CC(C)CC(CC(=O)C(=O)O)C(=O)O (centres unmarked) [compound 29] | < 1% | 0.51 ± 0.12 µM |  | IC50 [1, 5]: 10.8 ± 2.7 µM; IC50 [1, 6]: 16.8 ± 2.5 µM; IC50 [1, 7]: 26.9 ± 7 µM
O=C(O)C(=O)C1(C(=O)O)CC1 [compound 48] | < 1% | ~3.3 µM and 3.3 µM |  | 
CC1(C)C(C(=O)O)C1C(=O)C(=O)O (centres unmarked) [compound 35] | < 1% | ~5.2 µM and 5.2 µM |  | 
Cc1cc(C)cc(CC(CC(=O)O)C(=O)C(=O)O)c1 (centres unmarked) [compound 25] | < 1% | 4.7 ± 0.2 µM |  | 
O=C(O)CNC(=O)C(=O)O [NOG, N-oxalylglycine, reference compound] |  | ~1 µM |  | IC50 [1, 4]: 0.99 ± 0.31 µM
CCC(CC(=O)O)C(=O)C(=O)O (centres unmarked) [compound 17, 3-ethyl-2OG] | < 1% | ~1.2 µM and 1.2 µM |  | IC50 [1, 5]: 22.4 ± 3.2 µM; IC50 [1, 6]: 35.3 ± 9.9 µM; IC50 [1, 7]: 54.9 ± 10.8 µM
O=C(O)C(=O)c1cccc(C(=O)O)c1 [compound 40, 3-carboxyphenylglyoxylic acid] | < 1% |  | did not inhibit | IC50 (inhibition of AspH) ([1]; 50 nM His6-AspH315–758, 1.0 μM hFX-CP101–119, 3 μM 2OG, listed as C00009): Inactive
